In ChEMBL document CHEMBL1212917, “Substituted E-3-(3-indolylmethylene)-1,3-dihydroindol-2-ones with antitumor activity. In depth study of the effect on growth of breast cancer cells” (2010):
Where a name gives a salt, the structure may show the parent alone.

Tests used:
Format in all cases: functional
[1] = Growth inhibition of human breast cancer cells after 48 hrs; conditions: Cancer cell lines; for CC50: read-out: LC50 (the source's name)
[2] = Growth inhibition of human leukemia cells after 48 hrs; conditions: Leukemia cell; for CC50: read-out: LC50 (the source's name)
[3] = Growth inhibition of human CNS cancer cells after 48 hrs; conditions: Cancer cell lines; for CC50: read-out: LC50 (the source's name)
[4] = Growth inhibition of human prostate cancer cells after 48 hrs; conditions: Cancer cell lines; for CC50: read-out: LC50 (the source's name)
[5] = Growth inhibition of human renal cancer cells after 48 hrs; conditions: Cancer cell lines; for CC50: read-out: LC50 (the source's name)
[6] = Growth inhibition of human Ovarian cancer cells after 48 hrs; conditions: Cancer cell lines; for CC50: read-out: LC50 (the source's name)
NSCLC = experiment: Growth inhibition of human NSCLC cells after 48 hrs
[7] = Growth inhibition of human colon cancer cells after 48 hrs; conditions: Cancer cell lines; for CC50: read-out: LC50 (the source's name)
[8] = Growth inhibition of human melanoma cells after 48 hrs; conditions: Melanoma cell; for CC50: read-out: LC50 (the source's name)

| Compound | GI50 [1] [µM] | GI50 [2] [µM] | CC50 [3] [µM] | GI50 [4] [µM] | CC50 [4] [µM] | CC50 [1] [µM] | GI50 [5] [µM] | CC50 [5] [µM] | GI50 [6] [µM] | CC50 [6] [µM] | GI50 (NSCLC) [µM] | LC50 (NSCLC) [µM] | CC50 [2] [µM] | GI50 [3] [µM] | GI50 [7] [µM] | CC50 [7] [µM] | GI50 [8] [µM] | CC50 [8] [µM] | TGI [4] [µM] | TGI [1] [µM] | further results |
| --- | --- | --- | --- | --- | --- | --- | --- | --- | --- | --- | --- | --- | --- | --- | --- | --- | --- | --- | --- | --- | --- |
| COc1cc2c(/C=C3/C(=O)Nc4ccccc43)c[nH]c2cc1C | 0.12 | 0.09 | 53.7 | – | – | – | – | – | – | – | – | – | – | – | – | – | – | – | – | – | – |
| CN(C)c1ccc2[nH]c(Cl)c(/C=C3/C(=O)Nc4ccc(Cl)cc43)c2c1 | 1.32 | 1.62 | 18.2 | 2.45 | 46.8 | 55 | 1.78 | 29.5 | 3.31 | 41.7 | 2.57 | 46.8 | 91.2 | 1.58 | 2.09 | 22.9 | 2.69 | 37.1 | – | – | – |
| COc1cc2c(/C=C3/C(=O)N(C)c4ccccc43)c[nH]c2cc1C | 1.78 | 2 | 95.5 | 4.17 | – | – | 4.17 | – | 7.76 | – | 6.31 | 93.3 | 93.3 | 1.07 | 0.76 | 97.7 | 3.09 | 97.7 | 81.3 | 55 | TGI [5]: 60.3 µM; TGI [6]: 60.3 µM; TGI (NSCLC): 66.1 µM; TGI [2]: 35.5 µM; TGI [3]: 42.7 µM; TGI [7]: 60.3 µM; TGI [8]: 74.1 µM |
| COc1cc2c(/C=C3/C(=O)N(C)c4ccc(O)cc43)c(Cl)n(C)c2cc1C | 0.06 | 0.05 | 29.5 | 0.1 | 24 | 40.7 | 0.11 | 36.3 | 0.26 | 47.9 | 0.22 | 42.7 | 19.9 | 0.04 | 0.07 | 26.9 | 0.11 | 33.1 | – | – | – |
| COc1cc2c(/C=C3/C(=O)N(C)c4ccccc43)c(Cl)n(C)c2cc1C | 0.28 | 0.25 | 74.1 | 0.39 | 66.1 | 95.5 | 0.33 | 79.4 | 0.38 | 95.5 | 0.58 | – | 46.8 | 0.2 | 0.2 | 72.4 | 0.34 | 69.2 | – | – | – |
| COc1cc2c(/C=C3/C(=O)N(C)c4ccc(O)cc43)c[nH]c2cc1C | 2.75 | 3.47 | 67.6 | 3.55 | – | 63.1 | 5.89 | 93.3 | 5.62 | 95.5 | 6.03 | 91.2 | – | 3.72 | 2.95 | – | 3.24 | 66.1 | 15.8 | 16.2 | TGI [5]: 28.2 µM; TGI [6]: 31.6 µM; TGI (NSCLC): 21.9 µM; TGI [2]: 36.3 µM; TGI [3]: 24 µM; TGI [7]: 24.6 µM; TGI [8]: 15.1 µM |
| COc1cc2c(cc1C)NC(=O)/C2=C/c1c[nH]c2ccccc12 | 11.8 | 8.71 | 95.5 | 13.8 | 91.2 | 91.2 | 11.5 | 85.1 | 12.6 | 97.7 | 13.5 | 89.1 | – | 10 | 8.13 | 95.5 | 13.2 | 81.3 | 36.3 | 40.7 | TGI [5]: 38 µM; TGI [6]: 45.7 µM; TGI (NSCLC): 43.6 µM; TGI [2]: 55 µM; TGI [3]: 33.9 µM; TGI [7]: 52.5 µM; TGI [8]: 37.1 µM |
| O=C1Nc2ccc(F)cc2/C1=C\c1c(Cl)[nH]c2c1ccc1ccccc12 | 0.4 | – | 51.3 | – | – | 70.8 | – | – | – | – | – | – | – | – | – | – | – | – | – | – | – |
| CC[C@]1(O)C[C@H]2CN(CCc3c([nH]c4ccccc34)[C@@](C(=O)OC)(c3cc4c(cc3OC)N(C=O)[C@H]3[C@@](O)(C(=O)OC)[C@H](OC(C)=O)[C@]5(CC)C=CCN6CC[C@]43[C@@H]65)C2)C1 [VINCRISTINE SULFATE] | 0.32 | 0.1 | 200 | 0.13 | 316 | 316 | 0.32 | 251 | 0.32 | 316 | 0.25 | – | 631 | 0.13 | 0.1 | 79.4 | 0.16 | 251 | – | – | – |
| COc1ccc2[nH]cc(/C=C3/C(=O)Nc4ccccc43)c2c1 | 3.47 | 2.34 | 75.9 | 5.62 | 83.2 | 91.2 | 5.75 | 83.2 | 6.31 | 81.3 | 5.13 | – | 43.6 | 6.17 | 2.24 | 70.8 | 6.61 | 75.9 | 24 | 18.2 | TGI [5]: 26.3 µM; TGI [6]: 30.2 µM; TGI (NSCLC): 25.1 µM; TGI [2]: 7.76 µM; TGI [3]: 28.8 µM; TGI [7]: 15.5 µM; TGI [8]: 27.5 µM |
